According to patent publication US20230204587A1, “NOVEL DIAGNOSTIC MARKER FOR PROSTATE CANCER” (URTESTE S.A., priority 2020, published 2023):
Starred links: 1 amine or outer side, 2 acyl side, 3 side chain; linkers in the order of their positions; H or OH if unused. Non-standard residues stand in square brackets, D forms with d. No end group written: not given here. *: point of attachment. Benzoyl(5-NH,2-NO2) = O=C(c1cc(N[*:1])ccc1[N+](=O)[O-])[*:2]; pNA = O=[N+]([O-])c1ccc(N*)cc1; 2Abz = Nc1ccccc1C(=O)O

What was measured:
[1] = tested on: proteolytic enzymes in urine; assay: RP HPLC analysis of substrate hydrolysis in urine from a person diagnosed with prostate cancer; type: biochemical, human; details: randomly selected urine from a person diagnosed with prostate cancer
Protocol: A: ABZ-Trp-Glu-Gly-Asn-ANB-NH2 substrate in 200 mM Tris-HCl buffer, pH 8.0. B: Hydrolysis of ABZ-Trp-Glu-Gly-Asn-pNA substrate in urine of patients diagnosed with prostate cancer.

[2] = tested on: proteolytic enzymes in urine; assay: Chromogenic substrate hydrolysis in urine samples (absorbance at 405 nm, 96-well plate); type: biochemical, human; details: for rate of hydrolysis of substrate (increase in absorbance over time): 200 mM Tris-HCl pH 8.0, 37° C., 60 minutes, 405 nm
Protocol: The study on the application of new compounds was performed on a group of 25 patients diagnosed with prostate cancer. For this purpose, the compound with formula: ABZ-Trp-Glu-Gly-Asn-ANB-NH2 or ABZ-Trp-Glu-Gly-Asn-pNA was dissolved in dimethyl sulfoxide (at a concentration of 0.5 mg/mL); 50 μL of this solution was mixed with 120 μl buffer (200 mM Tris-HCl, pH 8.0) and 80 μL of urine of a person with prostate cancer. The measurement was made in a 96-well plate designed for measuring absorbance, and each sample was analysed in triplicate at 37° C. The duration of the measurement was 60 minutes. During the measurement, the wavelength characteristic of the released chromophore (ANB-NH2 or pNA) was monitored at 405 nm (range 380-430 nm).

Row | rate of hydrolysis of substrate (increase in absorbance over time) ([2]; urine of patients diagnosed with prostate cancer (samples 1-25)) | Substance | hydrolysis products by RP HPLC [1] | rate of hydrolysis of substrate (increase in absorbance over time) ([2]; urine from healthy individuals) | absorbance increase on incubation with urine from various kinds of malignancies ([2]; urine from pancreas, liver, bowel, lung, bile duct, stomach and prostate cancer patients)
1 | – | ABZ-Trp-Glu-Gly-Asn-pNA ([2Abz]WEGN-pNA) [Compound 2, chromogenic peptide; ABZ is 2-aminobenzoic acid, pNA is para-nitroaniline] | break down into the ABZ-Trp-Glu-Gly-Asn-OH peptide fragment and chromophore | – | –
2 | all samples 1-25 disintegrated | ABZ-Trp-Glu-Gly-Asn-ANB-NH2 ([2Abz]WEGN-{Benzoyl(5-NH,2-NO2)-NH2}) [Compound 1, chromogenic peptide; ABZ is 2-aminobenzoic acid, ANB-NH2 is amide of 5-amino-2-nitrobenzoic acid] | break down into the ABZ-Trp-Glu-Gly-Asn-OH peptide fragment and chromophore | does not lead to an increase in absorbance | absorbance increase is observed only for urine of patient diagnosed with prostate cancer
